{"source": "patent US20190331687A1", "about": "“CANCER TREATMENT” (PFIZER INC., priority 2014, published 2019)", "tested_on": "metastatic renal cell carcinoma (mRCC)", "assay": "Study A4061032 (AXIS phase 3 trial): PFS and OS of axitinib-treated mRCC patients by tumor CD68 IHC stratum (median cut off)", "format": "in vivo, human", "settings": "for median OS / median progression free survival (PFS): regardless of prior treatment", "description": "Study A4061032 (ClinicalTrials.gov Identifier: NCT00678392) was a phase 3 registrational trial entitled “Axitinib (AG-013736) as second line therapy for metastatic renal cell cancer: Axis trial”. […] A total of 650 patients were planned to be enrolled, and 723 subjects were eventually enrolled in the study.\nAs described in further detail in the Examples, formalin-fixed paraffin embedded (FFPE) tumor samples were collected from patients who participated in A4061032, and who provided specific consent for collection of tumor sample. Tumor myeloid (cluster of differentiation 68 “CD68”) or lymphocyte (cluster of differentiation 3 “CD3”) infiltration was assessed by immunohistochemistry (IHC) in tumor samples from 52 axitinib-treated patients. The aim was to investigate the potential association of these biomarkers with efficacy, consistent with the hypothesis that myeloid infiltration confers resistance to anti-angiogenic agents targeting the VEGF-VEGFR2 pathway (see Shojaei et al. (2007) Nat. Biotechnol. 25(8):911-920; and Lin et al. (2010) Eur. J. Cancer Suppl. 8(7): 191).\nThe evaluation of CD3 and CD68 was performed by image analysis from a whole slide scan. The region of interest was circled, and an image analysis algorithm was run. The percentage of positive cells (number of positive cells/total number of cells) and the density of positive cells (e.g. number of positive cells/mm^2) was measured. Some patients donated FFPE blocks, and some donated slides cut from blocks. Samples from all patients were analyzed, whether they were provided as slides or blocks.\nThis study was a 2-arm, randomized, open-label, multi-center phase 3 study of axitinib versus sorafenib in patients with metastatic renal cell carcinoma (mRCC), after failure following one prior systematic first-line regimen containing one or more of the following agents: sunitinib, bevacizumab+IFN α, temsirolimus, or cytokine(s). Overall, 723 patients with mRCC were randomized and enrolled in this study, among which 52 axitinib-treated patients were evaluable for immunohistochemistry (IHC) analysis; further, 33 of the 52 patients were previously treated with Sutent®.\nAll 52 patients were evaluable for both CD3 and CD68. Of the 52 CD3 and CD68 evaluable patients, 26 donated formalin-fixed paraffin embedded (FFPE) tumor blocks, and 26 donated slides for analysis. Mosaic Laboratories provided FFPE material representing human normal and human cancer. Specimens were procured under an IRB-reviewed protocol (MOS001) that allows for use of remnant, de-identified, or anonymized human samples for in vitro analysis under the guidelines defining ‘Exemption from Human Subject Research’ as defined by the Office of Human Research Protection. The CD68 mouse monoclonal KP1 antibody (Catalog# M0814, Lot#46406, Expiration date: September 2011) was purchased from Dako (Carpinteria, Calif., United States) and stored at 2-8° C. in accordance with accompanying documentation. The mouse IgG isotype control antibody (Lot#37211, Expiration date: July 2010) was purchased from Dako and stored at 2-8° C. in accordance with accompanying documentation. IHC was performed in accordance with Mosaic Laboratories' SOPs. The CD68 IHC assay was designed and validated to be compatible with CLIA guidelines for “homebrew” class I test validation.\nFor IHC biomarker analysis, the Biomarker Analysis Set was used, which included all patients who received at least one dose of study treatment. The following efficacy endpoints were analyzed: PFS, OS, and objective response rate (ORR). Summary statistics were provided for percent and density of positive cells by response category (complete response [CR]+partial response [PR] versus stable disease [SD]+progressive disease [PD]) for each marker). The Wilcoxon Rank Sum test was performed to test for difference between response categories. Fisher's exact test was used to test for association between response category and biomarker stratum using median value as cut off point.", "key": {"[1]": {"settings": "patients with <median CD68 cell density (cut off 0.08 cells/mm^2)"}, "[2]": {"settings": "patients with <median CD68 percentage of positive cells (cut off 5.21%)"}, "[3]": {"settings": "patients with >=median CD68 cell density (cut off 0.08 cells/mm^2)"}, "[4]": {"settings": "patients with >=median CD68 percentage of positive cells (cut off 5.21%)"}}}
{"smiles": "CNC(=O)c1ccccc1Sc1ccc2c(/C=C/c3ccccn3)n[nH]c2c1", "note": "[axitinib, 6-[2-(methylcarbamoyl)phenylsulfanyl]-3-E-[2-(pyridin-2-yl)ethenyl]indazole]", "values": [{"measurement": "hazard ratio (HR) for OS", "setting": ">=median vs <median CD68 values, all cases, not statistically significant", "result": "> 0.6"}, {"measurement": "hazard ratio [HR] for PFS", "setting": ">=median vs <median CD68 values, logrank p-value<=0.01, all patients regardless of prior treatment", "result": 0.42}, {"measurement": "median OS", "setting": "[1]", "result": 17.8, "unit": "months"}, {"measurement": "median progression free survival (PFS)", "setting": "[1]", "result": 3.8, "unit": "months"}, {"measurement": "median OS", "setting": "[2]", "result": 21.8, "unit": "months"}, {"measurement": "median progression free survival (PFS)", "setting": "[2]", "result": 3.7, "unit": "months"}, {"measurement": "median OS", "setting": "[3]", "result": 22.6, "unit": "months"}, {"measurement": "median progression free survival (PFS)", "setting": "[3]", "result": 12.0, "unit": "months"}, {"measurement": "median OS", "setting": "[4]", "result": 20.0, "unit": "months"}, {"measurement": "median progression free survival (PFS)", "setting": "[4]", "result": 12.0, "unit": "months"}]}
